Assay results as given in PubChem BioAssay AID248 (DTP/NCI, 2004).
Values joined by “and” are separate entries in the source; they are usually repeats but may differ in a detail not shown here. Identical values can stand only once. Inconclusive results and toxic doses are left out. Cut-off read from the data, not from the text of the source: active = T/C of 150% or more; inactive = T/C below 125%.

Test system: L1210 leukemia ip in BDF1 mice, survival T/C
Assay: NCI In Vivo Anticancer Drug Screen. Data for tumor model L1210 Leukemia (intraperitoneal) in B6D2F1 (BDF1) mice
Settings: endpoint: mean survival time, higher = longer survival
Procedure, shortened: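 Read-out is survival time, reported as the treated-group measurement over the vehicle-control measurement.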

[1] = dose: 50.0 mg/kg/injection, schedule: Q01DX001 (ip), vehicle: saline
[2] = dose: 100.0 mg/kg/injection, schedule: Q01DX001 (ip), vehicle: saline
[3] = dose: 200.0 mg/kg/injection, schedule: Q01DX001 (ip), vehicle: saline
[4] = dose: 400.0 mg/kg/injection, schedule: Q01DX001 (ip), vehicle: saline
[5] = dose: 100.0 mg/kg/injection, schedule: Q04DX002 (ip), vehicle: Klucel (hydroxypropylcellulose) (HPC)
[6] = dose: 200.0 mg/kg/injection, schedule: Q04DX002 (ip), vehicle: Klucel (hydroxypropylcellulose) (HPC)
[7] = dose: 100.0 mg/kg/injection, schedule: Q01DX001 (ip), vehicle: Klucel (hydroxypropylcellulose) (HPC)
[8] = dose: 100.0 mg/kg/injection, schedule: Q04DX003 (ip), vehicle: Klucel (hydroxypropylcellulose) (HPC)
[9] = dose: 200.0 mg/kg/injection, schedule: Q04DX003 (ip), vehicle: Klucel (hydroxypropylcellulose) (HPC)
[10] = dose: 400.0 mg/kg/injection, schedule: Q01DX001 (ip), vehicle: Klucel (hydroxypropylcellulose) (HPC)
[11] = dose: 400.0 mg/kg/injection, schedule: Q04DX003 (ip), vehicle: Klucel (hydroxypropylcellulose) (HPC)
[12] = dose: 400.0 mg/kg/injection, schedule: Q04DX003 (ip), vehicle: saline with Tween-80
[13] = dose: 200.0 mg/kg/injection, schedule: Q01DX001 (ip), vehicle: Klucel (hydroxypropylcellulose) (HPC)
[14] = dose: 200.0 mg/kg/injection, schedule: Q01DX009 (ip), vehicle: Klucel (hydroxypropylcellulose) (HPC)

Measured: T/C

O=Cc1ccc(O)c(O)c1
inactive: dose: 100.0 mg/kg/injection, schedule: Q01DX Z (ip), vehicle: other 101 % of control and 102 % of control | dose: 150.0 mg/kg/injection, schedule: Q01DX Z (ip), vehicle: other 101 % of control and 107 % of control | dose: 160.0 mg/kg/injection, schedule: Q01DX Z (ip), vehicle: carboxymethylcellulose (CMC) 115 % of control | dose: 160.0 mg/kg/injection, schedule: Q01DX Z (ip), vehicle: other 122 % of control | dose: 225.0 mg/kg/injection, schedule: Q01DX Z (ip), vehicle: other 98 % of control and 120 % of control | dose: 240.0 mg/kg/injection, schedule: Q01DX Z (ip), vehicle: carboxymethylcellulose (CMC) 122 % of control | dose: 340.0 mg/kg/injection, schedule: Q01DX Z (ip), vehicle: other 101 % of control and 107 % of control | dose: 510.0 mg/kg/injection, schedule: Q01DX Z (ip), vehicle: other 113 % of control | dose: 540.0 mg/kg/injection, schedule: Q01DX Z (ip), vehicle: other 93 % of control | dose: 750.0 mg/kg/injection, schedule: Q01DX Z (ip), vehicle: other 113 % of control

COc1cc(/C(C)=N\N(C)C)ccc1O
inactive: [1] 100 % of control | [2] 96 % of control | [3] 100 % of control | [4] 96 % of control

CC1(C)N=C(N)N=C(N)N1c1ccc(C(=O)Nc2cccc(S(=O)(=O)F)c2)cc1
inactive: dose: 0.8 mg/kg/injection, schedule: Q01DX009 (ip), vehicle: saline 97 % of control | dose: 4.0 mg/kg/injection, schedule: Q01DX009 (ip), vehicle: saline 101 % of control | dose: 20.0 mg/kg/injection, schedule: Q01DX009 (ip), vehicle: saline 97 % of control | dose: 100.0 mg/kg/injection, schedule: Q01DX009 (ip), vehicle: saline 100 % of control | dose: 500.0 mg/kg/injection, schedule: Q01DX009 (ip), vehicle: saline 92 % of control

COC(=O)N1C(c2ccccc2)(c2ccccc2)CS1(=O)=O
inactive: [5] 112 % of control | [6] 104 % of control | dose: 400.0 mg/kg/injection, schedule: Q04DX002 (ip), vehicle: Klucel (hydroxypropylcellulose) (HPC) 93 % of control

CCCCCCCCCCCCCCCCOc1ccc(Cl)cc1
inactive: [7] 95 % of control | [8] 97 % of control | [9] 87 % of control | [10] 92 % of control | [11] 93 % of control

OCCOCCOCCOCCO
inactive: [2] 109 % of control | [3] 105 % of control | [4] 100 % of control

CCC(C)(S(=O)(=O)CC)S(=O)(=O)CC
inactive: dose: 100.0 mg/kg/injection, schedule: Q01DX009 (ip), vehicle: saline with Tween-80 105 % of control | dose: 200.0 mg/kg/injection, schedule: Q01DX009 (ip), vehicle: saline with Tween-80 102 % of control | dose: 400.0 mg/kg/injection, schedule: Q01DX009 (ip), vehicle: saline with Tween-80 100 % of control

Cc1ccc(NC(=O)NC(C)C)c(C)c1
inactive: dose: 12.5 mg/kg/injection, schedule: Q04DX003 (ip), vehicle: saline with Tween-80 96 % of control | dose: 25.0 mg/kg/injection, schedule: Q04DX003 (ip), vehicle: saline with Tween-80 98 % of control | dose: 50.0 mg/kg/injection, schedule: Q04DX003 (ip), vehicle: saline with Tween-80 104 % of control | [12] 90 % of control

COc1cc(C)ccc1C(=O)CCCC(=O)O
inactive: [7] 106 % of control | [8] 105 % of control | [13] 98 % of control | [14] 97 % of control | [9] 102 % of control | [10] 98 % of control | dose: 400.0 mg/kg/injection, schedule: Q01DX009 (ip), vehicle: Klucel (hydroxypropylcellulose) (HPC) 98 % of control | [11] 103 % of control

O=c1cc(O)nc(C(F)(F)F)[nH]1
inactive: dose: 29.0 mg/kg/injection, schedule: Q01DX Z (ip), vehicle: methylcellulose (MC) 92 % of control | dose: 44.0 mg/kg/injection, schedule: Q01DX Z (ip), vehicle: methylcellulose (MC) 96 % of control | dose: 66.0 mg/kg/injection, schedule: Q01DX Z (ip), vehicle: methylcellulose (MC) 103 % of control | dose: 100.0 mg/kg/injection, schedule: Q01DX Z (ip), vehicle: methylcellulose (MC) 100 % of control

COC(=O)CCN1C(=O)c2ccccc2C1=O
inactive: dose: 100.0 mg/kg/injection, schedule: Q01DX001 (ip), vehicle: saline with Tween-80 110 % of control | dose: 200.0 mg/kg/injection, schedule: Q01DX001 (ip), vehicle: saline with Tween-80 102 % of control

ClC1(Cl)CC2CC1C1C3CC(C4OC34)C21 (configuration not stated)
inactive: dose: 50.0 mg/kg/injection, schedule: Q01DX001 (ip), vehicle: carboxymethylcellulose (CMC) 94 % of control and 119 % of control | dose: 100.0 mg/kg/injection, schedule: Q01DX001 (ip), vehicle: carboxymethylcellulose (CMC) 94 % of control | dose: 200.0 mg/kg/injection, schedule: Q01DX001 (ip), vehicle: carboxymethylcellulose (CMC) 105 % of control | dose: 400.0 mg/kg/injection, schedule: Q01DX001 (ip), vehicle: carboxymethylcellulose (CMC) 98 % of control

CCSc1ncc(F)c(=O)[nH]1
inactive: [1] 113 % of control | [2] 101 % of control | [3] 98 % of control

CC(C)NC(=O)CS(=O)(=O)c1ccc(N)cc1
inactive: dose: 100.0 mg/kg/injection, schedule: Q04DX003 (ip), vehicle: saline with Tween-80 97 % of control | dose: 200.0 mg/kg/injection, schedule: Q04DX003 (ip), vehicle: saline with Tween-80 97 % of control | [12] 95 % of control

OC[CH2][Hg][I]
inactive: dose: 1.56 mg/kg/injection, schedule: Q01DX009 (ip), vehicle: Klucel (hydroxypropylcellulose) (HPC) 88 % of control | dose: 6.25 mg/kg/injection, schedule: Q01DX009 (ip), vehicle: Klucel (hydroxypropylcellulose) (HPC) 93 % of control

CC1=C/C(=N/Nc2ccc([N+](=O)[O-])cc2[N+](=O)[O-])CCC1
inactive: dose: 50.0 mg/kg/injection, schedule: Q01DX009 (ip), vehicle: acetone 93 % of control | dose: 100.0 mg/kg/injection, schedule: Q01DX009 (ip), vehicle: acetone 88 % of control | dose: 100.0 mg/kg/injection, schedule: Q04DX003 (ip), vehicle: acetone 93 % of control | dose: 200.0 mg/kg/injection, schedule: Q04DX003 (ip), vehicle: acetone 86 % of control | dose: 400.0 mg/kg/injection, schedule: Q04DX003 (ip), vehicle: acetone 86 % of control

COC(OC)c1cc(=O)[nH]c(=S)[nH]1
inactive: dose: 25.0 mg/kg/injection, schedule: Q04DX003 (ip), vehicle: Klucel (hydroxypropylcellulose) (HPC) 100 % of control | dose: 50.0 mg/kg/injection, schedule: Q01DX001 (ip), vehicle: Klucel (hydroxypropylcellulose) (HPC) 111 % of control | dose: 50.0 mg/kg/injection, schedule: Q04DX003 (ip), vehicle: Klucel (hydroxypropylcellulose) (HPC) 91 % of control | [7] 90 % of control | [8] 92 % of control | [13] 98 % of control

O=c1oc2cccc(O)c2c(O)c1Cc1ccccc1
inactive: dose: 100.0 mg/kg/injection, schedule: Q04DX003 (ip), vehicle: saline 97 % of control | dose: 200.0 mg/kg/injection, schedule: Q04DX003 (ip), vehicle: saline 94 % of control | dose: 400.0 mg/kg/injection, schedule: Q04DX003 (ip), vehicle: saline 94 % of control

COc1cc(CC2(C#N)c3ccccc3C=CN2C(=O)c2ccccc2)c(Oc2cc(CC3(C#N)c4ccccc4C=CN3C(=O)c3ccccc3)ccc2OC)cc1OC (configuration not stated)
inactive: [8] 98 % of control | [9] 93 % of control | [11] 92 % of control

Cc1cc[n+]([O-])cc1C
inactive: dose: 100.0 mg/kg/injection, schedule: Q01DX009 (ip), vehicle: Klucel (hydroxypropylcellulose) (HPC) 101 % of control | [5] 98 % of control | [14] 96 % of control | [6] 101 % of control

O=C(O)C1=C2C(=O)Nc3cccc(c32)C2(C1)C(=O)Nc1ccccc12 (configuration not stated)
inactive: dose: 100.0 mg/kg/injection, schedule: Q04DX002 (ip), vehicle: saline with Tween-80 103 % of control | dose: 200.0 mg/kg/injection, schedule: Q04DX002 (ip), vehicle: saline with Tween-80 103 % of control | dose: 400.0 mg/kg/injection, schedule: Q04DX002 (ip), vehicle: saline with Tween-80 103 % of control
